Experimental data taken from PMC10279640 (Nature Communications, 2023).
Square brackets hold non-standard residues; d marks the D form. Peptide text beside a SMILES is read from it. sY = N[C@@H](Cc1ccc(OS(=O)(=O)O)cc1)C(=O)O

How the values were obtained:
PvDBP-RII = PvDBP-RII (Plasmodium vivax, UniProt P22290, S353A/T257A/T422A); assay: biochemical; format: binding
[1] = test system: P. knowlesi PvDBP^OR/PkDBPβγ^KO; conditions: PvDBP-expressing P. knowlesi, at the concentrations tested
[2] = test system: P. knowlesi wild-type A1-H.1

Compound | Kd (PvDBP-RII) [nM] | growth inhibition (in words) [1] | growth inhibition (in words) [2]
CC(=O)N[C@@H](CCC(N)=O)C(=O)N[C@@H](CC(C)C)C(=O)N[C@@H](CC(=O)O)C(=O)N[C@@H](Cc1ccccc1)C(=O)N[C@@H](CCC(=O)O)C(=O)N[C@@H](CC(=O)O)C(=O)N[C@H](C(=O)N[C@@H](Cc1c[nH]c2ccccc12)C(=O)N[C@@H](CC(N)=O)C(=O)N[C@@H](CO)C(=O)N[C@@H](CO)C(=O)N[C@@H](Cc1ccc(OS(=O)(=O)O)cc1)C(=O)NCC(=O)N[C@H](C(=O)N[C@@H](CC(N)=O)C(=O)N[C@@H](CC(=O)O)C(=O)N[C@@H](CO)C(=O)N[C@@H](Cc1ccccc1)C(=O)N1CCC[C@H]1C(=O)N[C@@H](CC(=O)O)C(=O)NCC(=O)N[C@@H](CC(=O)O)C(=O)N[C@@H](Cc1ccc(O)cc1)C(=O)N[C@@H](CC(=O)O)C(=O)N[C@@H](C)C(=O)N[C@@H](CC(N)=O)C(=O)N[C@@H](CC(C)C)C(=O)N[C@@H](CCC(=O)O)C(=O)N[C@@H](CC(C)C)C(N)=O)C(C)C)C(C)C [Y30-S] (Ac-QLDFEDVWNSS[sY]GVNDSFPDGDYDANLEL-NH2) | 552 |  | 
Ac-QLDFEDVWNSSYGVNDSFPDGDYDANLEL-NH2 [non-sulfated] |  | no growth inhibition observed | no inhibition observed
